Data from doi:10.1101/2022.07.25.501355v1, “Building artificial plant cell wall on lipid bilayer by assembling polysaccharides and engineered proteins” (biorxiv, 2022).

Assays:
[1] = target: Janus lectin RSL-CBM77Rf; format: binding, Ralstonia nicotianae / Ruminococcus flavefaciens; details: 25 °C; 20 mM Tris pH 7.5, 100 mM NaCl (ligand in 20 mM Tris pH 7.5); site on CBM77Rf part; ligand mainly DP7 with some DP8
[2] = target: T1, diCBM77Rf (Ruminococcus flavefaciens, UniProt A0A1A9TA81); test: isothermal titration calorimetry; format: binding; details: 25 °C; 20 mM Tris pH 7.5, 100 mM NaCl (ligand in 20 mM Tris pH 7.5); N fixed at 2 in the fit; no full sigmoid; ligand mainly DP7 with some DP8
T1 construct: CBM77 domain only; N-terminal His-tag cut by TEV; E. coli BL21(DE3)
T1 sequence (A0A1A9TA81 2-115): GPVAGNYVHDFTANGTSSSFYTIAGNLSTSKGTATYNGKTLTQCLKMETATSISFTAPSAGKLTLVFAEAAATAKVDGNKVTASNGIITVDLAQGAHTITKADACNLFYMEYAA
Description: isothermal titration calorimetry on diCBM77Rf

## O=C(O)[C@H]1O[C@H](O[C@@H]2[C@H](O)[C@@H](O)[C@@H](O[C@@H]3[C@H](O)[C@@H](O)[C@@H](O[C@@H]4[C@H](O)[C@@H](O)[C@@H](O[C@@H]5[C@H](O)[C@@H](O)[C@@H](O[C@@H]6[C@H](O)[C@@H](O)[C@@H](O[C@@H]7[C@H](O)[C@@H](O)C(O)O[C@@H]7C(=O)O)O[C@@H]6C(=O)O)O[C@@H]5C(=O)O)O[C@@H]4C(=O)O)O[C@@H]3C(=O)O)O[C@@H]2C(=O)O)[C@H](O)[C@@H](O)[C@H]1O (some centres unmarked) [GalA_DP7]
[1]
  Kd: 103 ± 15 µM
[2]
  Kd: 1280 ± 100 µM
